Here are results for nine compounds from PubChem BioAssay (NCI).

Molecules are shown by their SMILES.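 A five-concentration, 48-hour dose response in 96-well plates underlies each endpoint, interpolated linearly between surrounding concentrations. Here, GI50 denotes the concentration required for 50% inhibition of growth. TGI denotes the concentration required for complete inhibition of growth.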 Bounds are passed on as bounds.

Among the test systems are UACC-62 melanoma; OVCAR-8 ovarian; SR leukemia; ACHN renal; UACC-257 melanoma; OVCAR-3 ovarian; OVCAR-4 ovarian; M14 melanoma; SF-539 CNS.
Assay in all cases: DTP human tumour cell line panel, 48 h

As to `COc1ccc(-c2nn(-c3cccc(Cl)c3)cc2-c2c(C#N)c(=O)n3[nH]c(-c4ccc(C)o4)nc3c2C#N)cc1`, the GI50 in the assay on UACC-62 melanoma was 6.46 µM; in the assay on OVCAR-8 ovarian, 5.91 µM; with SR leukemia it was 4.22 µM; in the assay on ACHN renal, 7.61 µM; in the assay on UACC-257 melanoma, 8.45 µM; with OVCAR-3 ovarian, 5.68 µM. The GI50 in the assay on OVCAR-4 ovarian was 6.59 µM; in the assay with M14 melanoma, 5.49 µM; in the assay with SF-539 CNS it was 5.67 µM. Further, the TGI in the assay with UACC-62 melanoma is 42.7 µM; in the assay on OVCAR-8 ovarian, more than 50 µM; in the assay with SR leukemia, 22.1 µM; in the assay on ACHN renal it was more than 50 µM; in the assay on UACC-257 melanoma, more than 50 µM; in the assay on OVCAR-3 ovarian it was 19 µM. In addition, the results for the TGI with OVCAR-4 ovarian, in the assay on M14 melanoma and in the assay on SF-539 CNS were more than 50 µM, 22.4 µM and more than 50 µM, respectively.

On to `CN(Cc1cnc2nc(N)nc(N)c2n1)c1c(Cl)cc(C(=O)NC(CCC(=O)O)C(=O)O)cc1Br` (stereo not drawn), for which the GI50 with UACC-62 melanoma is less than 0.0118 µM; in the assay with OVCAR-8 ovarian, less than 0.01 µM; in the assay on SR leukemia, less than 0.01 µM; in the assay on ACHN renal, less than 0.01 µM; with OVCAR-3 ovarian, less than 0.01 µM; in the assay on OVCAR-4 ovarian it was more than 100 µM. Further, the GI50 with M14 melanoma and with SF-539 CNS was less than 0.01 µM each time. The TGI in the assay on UACC-62 melanoma, in the assay with OVCAR-8 ovarian, in the assay on SR leukemia, in the assay on ACHN renal, in the assay on UACC-257 melanoma and in the assay on OVCAR-3 ovarian was more than 100 µM each time. Besides, the TGI with OVCAR-4 ovarian, with M14 melanoma and in the assay on SF-539 CNS was more than 100 µM in each case.

On to `COc1cc2c(cc1OC)C(Sc1ccc(Cl)cc1)c1c(nc(N)c(C#N)c1N)O2` (stereo not drawn), for which the GI50 in the assay on UACC-62 melanoma was 1.27 µM; with OVCAR-8 ovarian, 1.39 µM; in the assay on SR leukemia it was 0.329 µM; in the assay with ACHN renal it was 1.59 µM; with UACC-257 melanoma, 1.58 µM; in the assay on OVCAR-3 ovarian, 1.27 µM. Moreover, the figures for the GI50 in the assay on OVCAR-4 ovarian, in the assay on M14 melanoma and in the assay with SF-539 CNS were 1.53 µM, 1.63 µM and 1.61 µM, respectively. Moreover, the TGI in the assay on UACC-62 melanoma was determined as 2.66 µM; with OVCAR-8 ovarian, 2.76 µM; with SR leukemia, 1.66 µM; in the assay on ACHN renal, 2.95 µM; with UACC-257 melanoma it was 2.96 µM; in the assay on OVCAR-3 ovarian it was 2.56 µM. Besides, the figures for the TGI with OVCAR-4 ovarian, in the assay on M14 melanoma and in the assay on SF-539 CNS were 2.96 µM, 3.1 µM and 3.03 µM, respectively.

As to `COc1cc(OC)c(OC)cc1/C=C\c1ccnc2ccccc12`, the TGI in the assay with UACC-62 melanoma is more than 67.9 µM; with OVCAR-8 ovarian, more than 100 µM; in the assay on SR leukemia it was more than 100 µM; in the assay with ACHN renal it was more than 100 µM; with UACC-257 melanoma it was more than 100 µM; in the assay with OVCAR-3 ovarian it was 7.44 µM. For the same compound, the TGI was more than 100 µM with OVCAR-4 ovarian, 38.9 µM with M14 melanoma and 1.32 µM in the assay on SF-539 CNS.

For `COc1ccc(-c2nc3sccn3c2/C=C/C(=O)c2cc(OC)c(OC)c(OC)c2)cc1`, the GI50 with UACC-62 melanoma is 2.08 µM; in the assay with OVCAR-8 ovarian, 3.03 µM; in the assay with SR leukemia it was 2.41 µM; in the assay with ACHN renal, 3.45 µM; with UACC-257 melanoma, 15.2 µM; in the assay with OVCAR-3 ovarian it was 2.34 µM. Besides, the GI50 in the assay on OVCAR-4 ovarian is 3.21 µM; in the assay on M14 melanoma it was 2.52 µM; with SF-539 CNS it was 1.79 µM. Moreover, the concentration for total growth inhibition (TGI) with UACC-62 melanoma is 9.15 µM; in the assay on OVCAR-8 ovarian, more than 21.8 µM; with SR leukemia, more than 28.2 µM; in the assay with ACHN renal it was more than 60.9 µM; in the assay with UACC-257 melanoma, 78.7 µM; in the assay on OVCAR-3 ovarian, 7.37 µM. In addition, the TGI in the assay on OVCAR-4 ovarian was more than 100 µM; in the assay with M14 melanoma, more than 27.6 µM; in the assay with SF-539 CNS, 4.96 µM.

For the compound `CN1CCC(C(=O)Nc2n[nH]c3nnc(-c4ccccc4)cc23)CC1`, the GI50 was more than 25 µM in the assay with UACC-62 melanoma; more than 25 µM with OVCAR-8 ovarian; more than 25 µM with SR leukemia; more than 25 µM with ACHN renal; more than 25 µM with UACC-257 melanoma; 10.1 µM with OVCAR-3 ovarian. Further, the GI50 with OVCAR-4 ovarian is more than 25 µM; in the assay on M14 melanoma it was more than 25 µM; in the assay with SF-539 CNS it was 11.7 µM. Also, the TGI in the assay on UACC-62 melanoma, in the assay with OVCAR-8 ovarian, in the assay on SR leukemia, in the assay on ACHN renal, in the assay with UACC-257 melanoma and with OVCAR-3 ovarian was more than 25 µM each time. Further, the TGI with OVCAR-4 ovarian, in the assay with M14 melanoma and in the assay with SF-539 CNS was more than 25 µM in each case.

With `c1ccc(-c2nc3ccccc3[nH]2)c(OCCCCCOc2ccccc2-c2nc3ccccc3[nH]2)c1`, the GI50 with UACC-62 melanoma is 12.8 µM; in the assay on OVCAR-8 ovarian, 21.7 µM; in the assay with SR leukemia it was 2.27 µM; in the assay on ACHN renal it was 13.1 µM; in the assay with UACC-257 melanoma it was 17.9 µM; in the assay with OVCAR-3 ovarian, 12 µM. In addition, the GI50 is 2.92 µM in the assay with OVCAR-4 ovarian, 13.4 µM with M14 melanoma and 3.44 µM in the assay on SF-539 CNS. In addition, the TGI with UACC-62 melanoma was 27.6 µM; with OVCAR-8 ovarian, 53 µM; in the assay on SR leukemia it was 13.1 µM; in the assay with ACHN renal it was 26.9 µM; in the assay on UACC-257 melanoma, 65.3 µM; with OVCAR-3 ovarian, 24.7 µM. The TGI in the assay on OVCAR-4 ovarian is 8.97 µM; in the assay with M14 melanoma, 44.1 µM; with SF-539 CNS, 11.5 µM.

Take `Cc1nc2sc(C(=O)Nc3cccc(Cl)c3)c(N)c2cc1C(O)c1ccccc1` (stereo not drawn): the GI50 was 0.757 µM in the assay on UACC-62 melanoma; 2.51 µM with OVCAR-8 ovarian; 0.414 µM in the assay with SR leukemia; 0.884 µM with ACHN renal; 1.39 µM in the assay with UACC-257 melanoma; 0.587 µM in the assay with OVCAR-3 ovarian. The GI50 is 4.64 µM in the assay with OVCAR-4 ovarian, 0.709 µM in the assay with M14 melanoma and 0.546 µM in the assay on SF-539 CNS. Also, the TGI was 16 µM in the assay with UACC-62 melanoma; more than 100 µM with OVCAR-8 ovarian; more than 100 µM in the assay on SR leukemia; 13.4 µM with ACHN renal; 22.2 µM in the assay with UACC-257 melanoma; 21.6 µM with OVCAR-3 ovarian. In addition, the TGI with OVCAR-4 ovarian is 31.2 µM; in the assay with M14 melanoma, more than 100 µM; in the assay with SF-539 CNS, 7.25 µM.

As to `CC(C)OC(=O)c1cc(NC(=S)OC(C)C)ccc1Cl`, the TGI with UACC-62 melanoma is 31.2 µM; in the assay with OVCAR-8 ovarian, more than 64.8 µM; in the assay with SR leukemia, more than 100 µM; with ACHN renal, more than 59.7 µM; in the assay with UACC-257 melanoma, 50.9 µM; in the assay with OVCAR-3 ovarian, 48.3 µM. Also, the TGI in the assay on OVCAR-4 ovarian was more than 56 µM; in the assay with M14 melanoma, more than 79.6 µM; with SF-539 CNS, 30.5 µM.
